Test results taken from ChEMBL document CHEMBL1157236, “A reassignment of (-)-mycothiazole and the isolation of a related diol” (2006).

Key:
[1] = tested on: DU-145; experiment: Growth inhibition of human DU145 cells; assay type: functional; details: DU-145, read-out: pGI50 (converted)
[2] = tested on: L1210; experiment: Selectivity for mouse C38 cells over mouse L1210 cells; assay type: functional
[3] = tested on: A498; experiment: Growth inhibition of human A498 cells; assay type: functional
[4] = Growth inhibition of human OVACR8 cells; assay type: functional
[5] = tested on: TK-10; experiment: Growth inhibition of human TK10 cells; assay type: functional; details: TK-10, read-out: pGI50 (converted)
[6] = tested on: HT-29; experiment: Growth inhibition of human HT29 cells; assay type: functional
[7] = tested on: DMS-114; experiment: Growth inhibition of human DMS114 cells; assay type: functional
[8] = tested on: MDA-MB-435; experiment: Growth inhibition of human MDA-MB-435 cells; assay type: functional
[9] = tested on: KM-20L2; experiment: Growth inhibition of human KM20L2 cells; assay type: functional
[10] = tested on: SK-MEL-28; experiment: Growth inhibition of human SK-MEL-28 cells; assay type: functional
[11] = tested on: SK-MEL-5; experiment: Growth inhibition of human SK-MEL-5 cells; assay type: functional
[12] = Growth inhibition of human RXF631 cells; assay type: functional; details: RXF 631, read-out: pGI50 (converted)
[13] = tested on: SK-MEL-2; experiment: Growth inhibition of human SK-MEL-2 cells; assay type: functional; details: SK-MEL-2, read-out: pGI50 (converted)
[14] = tested on: K562; experiment: Growth inhibition of human K562 cells; assay type: functional
[15] = tested on: CAKI-1; experiment: Growth inhibition of human CAKI1 cells; assay type: functional
[16] = tested on: M14; experiment: Growth inhibition of human M14 cells; assay type: functional
[17] = tested on: Malme-3M; experiment: Growth inhibition of human MALME3M cells; assay type: functional; details: read-out: pGI50 (converted)
[18] = tested on: MCF7; experiment: Growth inhibition of human MCF7 cells; assay type: functional; details: MCF7, read-out: pGI50 (converted)
[19] = tested on: Hs-578T; experiment: Growth inhibition of human HS578T cells; assay type: functional; details: read-out: pGI50 (converted)
[20] = tested on: HOP-62; experiment: Growth inhibition of human HOP62 cells; assay type: functional; details: HOP-62, read-out: pGI50 (converted)
[21] = tested on: NCI-H460; experiment: Growth inhibition of human NCI-H460 cells; assay type: functional
[22] = tested on: SNB-19; experiment: Growth inhibition of human SNB19 cells; assay type: functional; details: SNB-19, read-out: pGI50 (converted)
[23] = Growth inhibition of human OVACR5 cells; assay type: functional; details: OVACR5, read-out: pGI50 (converted)
[24] = tested on: LOX IMVI; experiment: Growth inhibition of human LOX IMVI cells; assay type: functional
[25] = tested on: NCI-H23; experiment: Growth inhibition of human NCI-H23 cells; assay type: functional
[26] = tested on: EKVX; experiment: Growth inhibition of human EKVX cells; assay type: functional
[27] = tested on: 786-0; experiment: Growth inhibition of human 786-0 cells; assay type: functional; details: 786-0, read-out: pGI50 (converted)
[28] = tested on: HCC 2998; experiment: Growth inhibition of human HCC2998 cells; assay type: functional; details: HCC 2998, read-out: pGI50 (converted)
[29] = tested on: RXF 393; experiment: Growth inhibition of human […] cells; assay type: functional
[30] = tested on: UACC-62; experiment: Growth inhibition of human UACC62 cells; assay type: functional
[31] = tested on: HOP-92; experiment: Growth inhibition of human HOP92 cells; assay type: functional
[32] = tested on: NCI/ADR-RES; experiment: Growth inhibition of human NCI/ADR-RES cells; assay type: functional
[33] = tested on: UACC-257; experiment: Growth inhibition of human UACC257 cells; assay type: functional
[34] = Growth inhibition of human OVACR4 cells; assay type: functional
[35] = tested on: DLD-1; experiment: Growth inhibition of human DLD1 cells; assay type: functional
[36] = tested on: NCI-H226; experiment: Growth inhibition of human NCI-H226 cells; assay type: functional; details: NCI-H226, read-out: pGI50 (converted)
[37] = tested on: SK-OV-3; experiment: Growth inhibition of human SK-OV-3 cells; assay type: functional
[38] = Growth inhibition of human OVACR3 cells; assay type: functional
[39] = tested on: NCI-H522; experiment: Growth inhibition of human NCI-H522 cells; assay type: functional
[40] = tested on: T47D; experiment: Growth inhibition of human T47D cells; assay type: functional; details: read-out: pGI50 (converted)
[41] = tested on: HCT-116; experiment: Growth inhibition of human HCT116 cells; assay type: functional
[42] = Growth inhibition of human LXFL529 cells; assay type: functional; details: LXFL 529
[43] = tested on: NCI-H322M; experiment: Growth inhibition of human NCI-H322M cells; assay type: functional
[44] = tested on: MOLT-4; experiment: Growth inhibition of human MOLT4 cells; assay type: functional
[45] = tested on: DMS-273; experiment: Growth inhibition of human DMS273 cells; assay type: functional
[46] = tested on: MDA-N; experiment: Growth inhibition of human MDA-N cells; assay type: functional
[47] = Growth inhibition of human […] cells; assay type: functional
[48] = tested on: M19-MEL; experiment: Growth inhibition of human M19-MEL cells; assay type: functional
[49] = tested on: SF-539; experiment: Growth inhibition of human SF539 cells; assay type: functional; details: SF-539, read-out: pGI50 (converted)
[50] = tested on: SF-295; experiment: Growth inhibition of human SF295 cells; assay type: functional
[51] = tested on: HCT-15; experiment: Growth inhibition of human HCT15 cells; assay type: functional
[52] = tested on: U-251; experiment: Growth inhibition of human U251 cells; assay type: functional
[53] = tested on: SNB-75; experiment: Growth inhibition of human SNB75 cells; assay type: functional
[54] = tested on: IGROV-1; experiment: Growth inhibition of human IGROV1 cells; assay type: functional
[55] = tested on: BT-549; experiment: Growth inhibition of human BT549 cells; assay type: functional
[56] = tested on: SF-268; experiment: Growth inhibition of human SF268 cells; assay type: functional
[57] = tested on: UO-31; experiment: Growth inhibition of human UO31 cells; assay type: functional
[58] = tested on: PC-3; experiment: Growth inhibition of human PC3 cells; assay type: functional; details: PC-3, read-out: pGI50 (converted)
[59] = tested on: SR; experiment: Growth inhibition of human SR cells; assay type: functional
[60] = tested on: ACHN; experiment: Growth inhibition of human ACHN cells; assay type: functional
[61] = tested on: CCRF-CEM; experiment: Growth inhibition of human CCRF-CEM cells; assay type: functional
[62] = tested on: KM12; experiment: Growth inhibition of human KM12 cells; assay type: functional
[63] = tested on: COLO 205; experiment: Growth inhibition of human COLO205 cells; assay type: functional
[64] = tested on: XF498; experiment: Growth inhibition of human XF498 cells; assay type: functional
[65] = tested on: SW-620; experiment: Growth inhibition of human SW620 cells; assay type: functional
[66] = tested on: SN12C; experiment: Growth inhibition of human SN12C cells; assay type: functional; details: read-out: pGI50 (converted)
[67] = Growth inhibition of human HL60(TB) cells; assay type: functional, HL-60(TB); details: HL-60
[68] = tested on: A549; experiment: Growth inhibition of human A549 cells; assay type: functional

## C=CC/C=C\Cc1csc(C(C)(C)[C@H](O)C/C=C\C(=C)CCNC(=O)OC)n1 [MYCOTHIAZOLE]
[1]
  GI50: > 100 µM
[2]
  Selectivity Index: 3
[3]
  GI50: 63.1 µM
[4]
  GI50: 79.4 µM
[5]
  GI50: > 100 µM
[6]
  GI50: 50.1 µM
[7]
  GI50: 0.0126 µM
[8]
  GI50: 50.1 µM
[9]
  GI50: 50.1 µM
[10]
  GI50: 79.4 µM
[11]
  GI50: 1.26 µM
[12]
  GI50: > 100 µM
[13]
  GI50: > 100 µM
[14]
  GI50: 0.794 µM
[15]
  GI50: 63.1 µM
[16]
  GI50: 39.8 µM
[17]
  GI50: > 100 µM
[18]
  GI50: > 100 µM
[19]
  GI50: > 100 µM
[20]
  GI50: > 100 µM
[21]
  GI50: 31.6 µM
[22]
  GI50: > 100 µM
[23]
  GI50: > 100 µM
[24]
  GI50: 39.8 µM
[25]
  GI50: 0.251 µM
[26]
  GI50: 25.1 µM
[27]
  GI50: > 100 µM
[28]
  GI50: > 100 µM
[29]
  GI50: 63.1 µM
[30]
  GI50: 39.8 µM
[31]
  GI50: 20 µM
[32]
  GI50: 79.4 µM
[33]
  GI50: 1.58 µM
[34]
  GI50: 63.1 µM
[35]
  GI50: 79.4 µM
[36]
  GI50: > 100 µM
[37]
  GI50: 79.4 µM
[38]
  GI50: 25.1 µM
[39]
  GI50: 20 µM
[40]
  GI50: > 100 µM
[41]
  GI50: 0.631 µM
[42]
  GI50: 20 µM
[43]
  GI50: 15.8 µM
[44]
  GI50: 39.8 µM
[45]
  GI50: 3.16 µM
[46]
  GI50: 50.1 µM
[47]
  GI50: 31.6 µM
[48]
  GI50: 25.1 µM
[49]
  GI50: > 100 µM
[50]
  GI50: 1.26 µM
[51]
  GI50: 39.8 µM
[52]
  GI50: 79.4 µM
[53]
  GI50: 39.8 µM
[54]
  GI50: 31.6 µM
[55]
  GI50: 3.16 µM
[56]
  GI50: 79.4 µM
[57]
  GI50: 79.4 µM
[58]
  GI50: > 100 µM
[59]
  GI50: 0.501 µM
[60]
  GI50: 50.1 µM
[61]
  GI50: 31.6 µM
[62]
  GI50: 63.1 µM
[63]
  GI50: 63.1 µM
[64]
  GI50: 50.1 µM
[65]
  GI50: 25.1 µM
[66]
  GI50: > 100 µM
[67]
  GI50: 10 µM
[68]
  GI50: 39.8 µM
